Assay results published in ChEMBL document CHEMBL1150053, “Scalarane-type bishomosester terpenes from the sponge Phyllospongia foliascens” (J Nat Prod, 1992).
Values after ≈ are worked out from the molar mass of the structure shown.

Tested on: KB
Assay: Cytotoxicity against human KB cells
Type: functional, cell-based

Row | Compound | IC50 [µg/mL]
1 | CCC(O)CC(=O)O[C@@H]1C[C@@H]2[C@@]3(C)CCC[C@](C)(CC)[C@@H]3CC[C@@]2(C)[C@@H]2C[C@@H](O)C3=C(C(=O)O[C@@H]3C)[C@@]12C (some centres not stated) [PHYLLACTONE A] | 20 (≈ 37.7 µM)
2 | CCC(O)CC(=O)O[C@@H]1C[C@@H]2[C@@]3(C)CCC[C@](C)(CC)[C@@H]3CC[C@@]2(C)[C@@H]2C[C@@H](O)C3=C(C(=O)O[C@H]3C)[C@@]12C (some centres not stated) [PHYLLACTONE B] | 20 (≈ 37.7 µM)
